Earlier results, collected in PMC13612640 (Cancer Chemotherapy and Pharmacology, 2026).

Parameters: method as in PMID 41165508

For `COc1ccc(F)cc1C(=O)NCc1ccc(-c2nn([C@@H](C)C(F)(F)F)c(N)c2C(N)=O)cc1` [pirtobrutinib], the “Plasma fraction unbound (fu)” value is listed as 0.046.
